Laboratory results: US20260038304A1, “METHOD AND SYSTEM FOR DETERMINING EFFICACY OF TREATMENT BY A PRE[…]” (priority 2023, published 2026)
Structures can show the parent of a compound that is named as a salt.

Columns and labels:
Assay type in all cases: in vivo
larval zebrafish [1] = assay: Acute cold stress exposure (28° C. to 18° C., 5 minutes) after drug pretreatment, swim pattern analysis; conditions: for stress-induced increase in swimming distance: cold shock, fluoxetine 4.6 μM 24 hours before; for stress-induced shift along the ICA2 (IC2) axis, turning/escape behavior: psilocybin 2.5 μM, ketamine 30 μM, fluoxetine 4.6 μM
Text: As known in the art, acute administration of psilocybin has anxiolytic effects in humans. The inventors have thus tested whether acute stress exposure causes changes in fish's swim patterns in our setup and whether psilocybin can prevent such stress-induced behavioral changes. Various environmental stressors have been tested in larval zebrafish that trigger cortisol increase, including hypertonic water, acids, mechanical disturbance, social isolation, and heating or cooling shock.
As shown in FIG. 4I-E, the inventors also tested the effect of hypertonic stress for comparison.
The behavioral effects of other antidepressants was investigated and compared with those of psilocybin. Initially, the effect of ketamine was tested. Ketamine is a fast-acting antidepressant that can also suppress stress-induced behavioral changes in zebrafish. Sub-anesthetic concentration (30 μM) were used and bath application were performed for 30 minutes before the cold shock (FIG. 5A).
The effect of fluoxetine was also tested in the cold shock paradigm, using a concentration of 4.6 μM from previous zebrafish studies, and the effect of bath application was examined for 24 hours before the cold shock (FIG. 5D). […] However, fluoxetine had mixed effects on body kinematics after stress exposure. […] These mixed effects may be due to the induction of distorted swim patterns by fluoxetine that were observed (FIG. 5F, FIG. S3C) but also may reflect its lack of acute anxiolytic effects in humans.
The inventors classified the effects of psilocybin, ketamine and fluoxetine based on two behavioral measures: changes in swimming distances (FIG. 5G) and the ICA analysis of body kinematics (FIG. 5H). In the first type of classification (FIG. 5G), the action of tested drugs was classified based solely on swimming distances. […] Anxiolytic effects were calculated based on how much the drugs could revert the increase of swimming distance induced by stress exposure. In the second type of classification (FIG. 5H), two dimensions identified by the ICA analysis of body kinematics were used. […] Anxiolytic effects were calculated based on how much the drugs could revert the changes along the IC2 axis induced by stress exposure.
Just as osmotic changes to the water cause stress to the fish, changes in water temperature are also known to induce stress. Zebrafish's optimal environment is approximately 28° C., and so it has been shown that a short exposure of 5 minutes to 18° C. leads to increased cortisol levels and anxiety-like behaviors in larval zebrafish. Thus, the inventors utilized this established stress paradigm and exposed the fish to 18° C. E3 medium for 5 minutes. The inventors subsequently returned the fish to 28° C. E3 for a 5-minute recovery before testing (FIG. 4A). 18° C. E3 was achieved by mixing 4° C. E3 with 28° C. E3. Over the course of the 5-minute cold stimulus, the water temperature on average ranged from 18° C. to 20° C. The recovery in 28° C. E3 was done in an incubator, thus the temperature remained stable. Note that these procedures involve multiple occasions of transferring fish and replacing liquid around the fish, which themselves cause stress response due to mechanical disturbances. The effect of such procedural stress was present as the shifts of behavioral states along the IC2 axis in the data presented in FIGS. 4 and S4 compared to other datasets.
(§1) For Independent Component Analysis (ICA) (FIGS. 2D, 3G, 4D, 4K and 4L), The inventors identified ICA weights and normalization factors in the dataset of 14,694 swimming episodes from N=22 fish for the small arena and N=20 fish for the large arena (FIG. 1) by using FastICA function in scikit-learn package (https://scikit-learn.org). The inventors subsequently applied the same ICA weights and normalization factors to other datasets. […]

larval zebrafish [2] = assay: Wide-field behavioral tracking of spontaneous exploration and visually driven swimming after drug bath pretreatment; conditions: for spontaneous swimming distance: unstressed fish, ketamine 30 μM bath 30 minutes, fluoxetine 4.6 μM bath 24 hours; for effects of pretreatment on swim patterns: fluoxetine 1 μM to 10 μM, fluvoxamine 2.5 μM to 25 μM, 24 hours incubation; for swim patterns and tail motions during visually driven behaviors: fluoxetine- and fluvoxamine-treated fish vs control, FIG. 3K
Text: Reference is now made to FIG. 1A, which is a schematic diagram depicting an experimental setup, which may be used for evaluating behavior of an animal, according to some embodiments. […] This setup tracks the precise body kinematics of a single fish in an environment that is large (e.g., 90 mm) compared to the length of larval zebrafish (˜4 mm) at a high-resolution (e.g., higher than 1100×1100 pixels) and high-speed (e.g., 290 Hz). Data analysis pipelines further processed the images to identify the fish loci and body postures by using a deep neural network.
Different swim episodes can be visually separated in the depicted trajectories. Fish behavior was recorded at infrared wavelengths for 15 minutes while visual gratings stopped for 10 seconds (spontaneous swimming) and moved for 10 seconds (visually driven behavior) in cycles.
The inventors have used a custom-built zebrafish tracking system consisting of a high-speed camera, a macro lens and associated locking sleeve, an infrared filter for the lens, 880 nm LED illumination, a 100 mm×120 mm cold mirror, and a compact projector.
The inventors have tested the behavior of AB fish at the age of 5 Days Post Fertilization (DPF) on a chemical watch glass (125 mm) whose bottom surface was manually coated with a white spray. The inventors have imaged an area that spanned 90 mm (corresponding to 1100-1200 pixels) for each dimension with a resolution of […] per pixel at 290 Hz. […] Behavioral data presented in this study were acquired using at least three batches, as depicted in FIGS. 1, 2, 3, 4, 1SD, 2H, 2I, 2J, 3L, 4S, for at least two batches (FIG. 3J).
Until 5 DPF, both control and drug-exposed embryos were reared in 90-mm Petri dishes and maintained in a light-cycled incubator at 28.0° C. Media was changed every other day and no food was given before behavioral experiments. All behavioral experiments in this study were performed in E3 medium after washing out pretreated drugs.
Psilocybin solution (Sigma, P-097) was purchased as a stock solution concentration of 1.0 mg/mL in acetonitrile:water (1:1), ampule of 1 mL (3.52 mM). Stock solutions were stored at −80° C. for long-term storage, and in-use aliquots were stored at −20° C. Aliquots were thawed and vortexed immediately before use. Psilocybin was administered by incubating the fish in the psilocybin solution in 6-well plates. Desired concentrations of psilocybin were achieved by adding the stock solution to the E3 medium in which the fish swim. Concentrations ranging from 1 μM to 50 μM were tested in order to optimize the dosage.
The inventors determined that a dose of 2.5 μM for 4 h had the largest effect on spontaneous swimming compared to controls (refer to FIGS. 3E and 3J). Following the 4-hour exposure, fish were double washed in E3 medium, and remained in E3 medium until their behavior was examined. Behaviors were recorded for 15 minutes per fish.
Fluoxetine hydrochloride (Sigma, F918) was prepared as a 1 mg/ml (2.9 mM) stock solution in a conditioned E3 medium for zebrafish embryos. Fluvoxamine (Sigma, F2802) was prepared as a 10 mg/ml (23 mM) stock solution in a conditioned E3 medium. Desired Fluoxetine and Fluvoxamine concentrations were achieved by diluting the stock solution with conditioned E3 medium and storing the aliquots at −20° C. At 5 DPF, the fish were incubated as follows: Fluoxetine and Fluvoxamine were administered by incubating the fish in the solutions in 6-well plates. Desired concentrations of the two types of SSRIs were achieved by adding the stock solutions to the E3 medium in which the fish swim. Concentrations ranging from 1 μM to 10 μM for Fluoxetine and 2.5 μM to 25 μM for Fluvoxamine were tested in order to optimize the dosage. After 24 hours of incubation the fish, after being triple washed, were transferred to a new Petri dish, similar to the one they dwelled in before, containing only E3 medium. Behaviors were recorded at 6 DPF for 15 minutes per fish. […]

larval zebrafish [3] = assay: Ketanserin bath application with or without psilocybin, independent component analysis of swim patterns; conditions: Ketanserin 11.25 μM for 5 hours
Protocol: The right panel of FIG. 4M depicts latent feature (e.g., independent component) analysis of swim patterns after the sham treatment, Ketanserin exposure and psilocybin pretreatment before Ketanserin exposure;
Ketanserin has acute anxiogenic effects in adult zebrafish and rodents.
For Ketanserin experiments (FIG. 4M), the inventors performed a bath application of Ketanserin (11.25 μM) for 5 hours before behavioral tests. Psilocybin (2.5 μM) was added to the solution 1 hour after the start of Ketanserin treatment for a total duration of 4 hours before behavioral tests. Ketanserin (Sigma, S006) was prepared as a 0.5 mg/mL stock solution in E3 medium. Stock solutions were stored at −80° C. for long-term storage, and in-use aliquots were stored at −20° C. The desired concentration of Ketanserin was achieved by adding the stock solution to the E3 medium in which the fish swim.
as §1

[4] = cold stress, classification of psilocybin, ketamine and fluoxetine

CNC1(c2ccccc2Cl)CCCCC1=O (centres unmarked) [ketamine]
stress-induced increase in swimming distance (larval zebrafish [1]; ketamine 30 μM 30 minutes): reversed
reversal of the stress-induced changes in body kinematics (FIG. 5H) (larval zebrafish [1]; cold stress, IC2 axis, classification of psilocybin, ketamine and fluoxetine): only occurred with ketamine and psilocybin
reversal of the stress-induced increases in swim distances (FIG. 5G) (larval zebrafish [1]; [4]): only occurred with ketamine and fluoxetine
stress-induced changes in swim patterns (zig-zag vs straight) during visually driven swimming (larval zebrafish [1]; cold stress, psilocybin 2.5 μM pretreatment, ketamine 30 μM 30 minutes): prevented the emergence of zig-zag swim patterns after cold shock and recovered straight swim patterns
stress-induced shift along the ICA2 (IC2) axis, turning/escape behavior (larval zebrafish [1]; cold stress): significantly reversed
spontaneous swimming distance (larval zebrafish [2]): did not increase

CN(C)CCc1c[nH]c2cccc(OP(=O)(O)O)c12 [psilocybin, Psilocybin]
most effective concentration for enhancing spontaneous exploration (larval zebrafish [2]; tested 1 μM to 50 μM, 30 minutes to 24 hours, optimal duration 4 h): 2.5 µM

O=C(c1ccc(F)cc1)C1CCN(CCn2c(=O)[nH]c3ccccc3c2=O)CC1 [Ketanserin]
shift of behavioral states by bath application (larval zebrafish [3]): shifted behavioral states similarly to both cold and hypertonic stressors

COCCCC/C(=N\OCCN)c1ccc(C(F)(F)F)cc1 [fluvoxamine, Fluvoxamine]
effects of pretreatment on swim patterns (larval zebrafish [2]): suppressive effects
swim patterns and tail motions during visually driven behaviors (larval zebrafish [2]): decrease amplitude of tail motions

CNCCC(Oc1ccc(C(F)(F)F)cc1)c1ccccc1 (centres unmarked) [fluoxetine, Fluoxetine hydrochloride]
stress-induced increase in swimming distance (larval zebrafish [1]; ketamine 30 μM 30 minutes): reversed
reversal of the stress-induced increases in swim distances (FIG. 5G) (larval zebrafish [1]; [4]): only occurred with ketamine and fluoxetine
stress-induced shift along the ICA2 (IC2) axis, turning/escape behavior (larval zebrafish [1]; cold stress): partially reversed and partially exacerbated
effects of pretreatment on swim patterns (larval zebrafish [2]): suppressive effects
swim patterns and tail motions during visually driven behaviors (larval zebrafish [2]): noticeable distortions in the swim patterns and low-frequency tail motions
stimulatory/suppressive effects on basal behavior (larval zebrafish [2]; unstressed fish vs control, swimming distance and IC1 axis classifications consistent (FIG. 5G, 5H)): suppressive
spontaneous swimming distance (larval zebrafish [2]): did not increase
